Results on six cell lines are retold here after the supplement of paper PMC10307832.

Common to all, as to assay: relative viability (nuclei count vs DMSO), 5 days (fraction); higher = more cells survive
Compound in the assay “Entinostat + Vorinostat”: Nc1ccccc1NC(=O)c1ccc(CNC(=O)OCc2cccnc2)cc1 [Entinostat] + O=C(CCCCCCC(=O)Nc1ccccc1)NO [Vorinostat] (partner 1 µM)
Summed up:
(§1)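 Dosing by pin tool came one day after lung cancer cell lines were seeded in 1536-well plates, using either one drug or a fixed anchor-drug dose plus five library-drug doses (not always all listed) in √10 steps. After 5 days, nuclei were counted on 4× images. Relative viability is treated-well nuclei count divided by vehicle-well nuclei count, and values are medians of duplicate plates.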

Compound in the assay “SGI-1776 + OSI-027”: CN1CCC(CNc2ccc3ncc(-c4cccc(OC(F)(F)F)c4)n3n2)CC1 [SGI-1776] + COc1cccc2cc(-c3nc([C@H]4CC[C@H](C(=O)O)CC4)n4ncnc(N)c34)[nH]c12 [OSI-027] (partner 0.5 µM)
In short, it runs like this:
as §1

Compound in assay [1]: C1COCCN1C2=NC(=NC3=C2OC4=C3C=CC=N4)C5=CC(=CC=C5)NC(=O)C6=CN=C(C=C6)N + Cc1cc(Nc2cc(N3CCN(C)CC3)nc(Sc3ccc(NC(=O)C4CC4)cc3)n2)n[nH]1 [Tozasertib] (partner 0.1 µM)
In short, it runs like this:
as §1

Compound in the assay “Entinostat + Pictilisib”: Nc1ccccc1NC(=O)c1ccc(CNC(=O)OCc2cccnc2)cc1 [Entinostat] + CS(=O)(=O)N1CCN(Cc2cc3nc(-c4cccc5[nH]ncc45)nc(N4CCOCC4)c3s2)CC1 [Pictilisib] (partner 1 µM)
In short, it runs like this: as §1

For PC-3 [JPC-3], the relative viability in the assay with Entinostat + Vorinostat (first compound 0.02 µM) is 1.15; with Entinostat + Vorinostat (first compound 0.06325 µM) it was 0.911; with Entinostat + Vorinostat (first compound 0.2 µM) it was 0.597; with Entinostat + Vorinostat (first compound 0.6325 µM) it was 0.525; with Entinostat + Vorinostat (first compound 2 µM) it was 0.36; with SGI-1776 + OSI-027 (first compound 0.08 µM), 0.791. In addition, the relative viability in the assay with SGI-1776 + OSI-027 (first compound 0.8 µM) came out at 0.818; with SGI-1776 + OSI-027 (first compound 2.53 µM), 0.74; in the assay with SGI-1776 + OSI-027 (first compound 8 µM), 0.672; in assay [1] (first compound 0.02 µM), 0.914; in assay [1] (first compound 0.06325 µM) it was 0.932; in assay [1] (first compound 0.2 µM) it was 0.85. In addition, the relative viability was found to be 0.893 in assay [1] (first compound 0.6325 µM); 0.507 in assay [1] (first compound 2 µM); 0.684 with Entinostat + Pictilisib (first compound 0.02 µM); 0.746 in the assay with Entinostat + Pictilisib (first compound 0.06325 µM); 0.623 in the assay with Entinostat + Pictilisib (first compound 0.2 µM); 0.387 with Entinostat + Pictilisib (first compound 0.6325 µM). Also, the relative viability with Entinostat + Pictilisib (first compound 2 µM) came to 0.306.
Consider PC-14, for which the relative viability amounted to 0.689 with Entinostat + Vorinostat (first compound 0.02 µM); 0.668 with Entinostat + Vorinostat (first compound 0.06325 µM); 0.615 with Entinostat + Vorinostat (first compound 0.2 µM); 0.147 with Entinostat + Vorinostat (first compound 0.6325 µM); 0.0636 with Entinostat + Vorinostat (first compound 2 µM); 0.857 with SGI-1776 + OSI-027 (first compound 0.08 µM). Besides, the relative viability in the assay with SGI-1776 + OSI-027 (first compound 0.8 µM) is 0.945; in the assay with SGI-1776 + OSI-027 (first compound 2.53 µM), 0.671; with SGI-1776 + OSI-027 (first compound 8 µM), 0.0734; in assay [1] (first compound 0.02 µM) it was 0.593; in assay [1] (first compound 0.06325 µM) it was 0.651; in assay [1] (first compound 0.2 µM), 0.566. For the same cell line, the relative viability in assay [1] (first compound 0.6325 µM) was found to be 0.486; in assay [1] (first compound 2 µM) it was 0.307; in the assay with Entinostat + Pictilisib (first compound 0.02 µM) it was 0.602; in the assay with Entinostat + Pictilisib (first compound 0.06325 µM) it was 0.516; with Entinostat + Pictilisib (first compound 0.2 µM) it was 0.5; with Entinostat + Pictilisib (first compound 0.6325 µM) it was 0.189. Further, the relative viability in the assay with Entinostat + Pictilisib (first compound 2 µM) came out at 0.0672.
In the case of RERF-LC-KJ, the relative viability is 0.68 with Entinostat + Vorinostat (first compound 0.02 µM); 0.665 with Entinostat + Vorinostat (first compound 0.06325 µM); 0.578 with Entinostat + Vorinostat (first compound 0.2 µM); 0.381 in the assay with Entinostat + Vorinostat (first compound 0.6325 µM); 0.25 with Entinostat + Vorinostat (first compound 2 µM); 0.592 with SGI-1776 + OSI-027 (first compound 0.08 µM). For the same cell line, the relative viability in the assay with SGI-1776 + OSI-027 (first compound 0.8 µM) was 0.52; with SGI-1776 + OSI-027 (first compound 2.53 µM), 0.507; with SGI-1776 + OSI-027 (first compound 8 µM), 0.305; in assay [1] (first compound 0.02 µM), 0.594; in assay [1] (first compound 0.06325 µM), 0.577; in assay [1] (first compound 0.2 µM), 0.35. Also, the relative viability in assay [1] (first compound 0.6325 µM) stood at 0.327; in assay [1] (first compound 2 µM), 0.326; with Entinostat + Pictilisib (first compound 0.02 µM), 0.695; in the assay with Entinostat + Pictilisib (first compound 0.06325 µM) it was 0.527; with Entinostat + Pictilisib (first compound 0.2 µM), 0.516; in the assay with Entinostat + Pictilisib (first compound 0.6325 µM) it was 0.431. Besides, the relative viability with Entinostat + Pictilisib (first compound 2 µM) was determined as 0.375.
On to SK-LU-1, for which the relative viability with Entinostat + Vorinostat (first compound 0.02 µM) is 0.775; with Entinostat + Vorinostat (first compound 0.06325 µM), 0.801; with Entinostat + Vorinostat (first compound 0.2 µM) it was 0.747; in the assay with Entinostat + Vorinostat (first compound 0.6325 µM), 0.579; with Entinostat + Vorinostat (first compound 2 µM), 0.582; with SGI-1776 + OSI-027 (first compound 0.08 µM) it was 0.397. Further, the relative viability with SGI-1776 + OSI-027 (first compound 0.8 µM) was found to be 0.328; in the assay with SGI-1776 + OSI-027 (first compound 2.53 µM) it was 0.335; with SGI-1776 + OSI-027 (first compound 8 µM), 0.166; in assay [1] (first compound 0.02 µM), 0.348; in assay [1] (first compound 0.06325 µM), 0.287; in assay [1] (first compound 0.2 µM), 0.266. The relative viability in assay [1] (first compound 0.6325 µM) was found to be 0.284; in assay [1] (first compound 2 µM), 0.314; with Entinostat + Pictilisib (first compound 0.02 µM), 0.503; with Entinostat + Pictilisib (first compound 0.06325 µM), 0.493; with Entinostat + Pictilisib (first compound 0.2 µM), 0.622; with Entinostat + Pictilisib (first compound 0.6325 µM), 0.38. Further, the relative viability with Entinostat + Pictilisib (first compound 2 µM) stood at 0.333.
SK-MES-1: the relative viability with Entinostat + Vorinostat (first compound 0.02 µM) is 1.02; in the assay with Entinostat + Vorinostat (first compound 0.06325 µM), 1.03; in the assay with Entinostat + Vorinostat (first compound 0.2 µM), 1.26; with Entinostat + Vorinostat (first compound 0.6325 µM), 0.954; in the assay with Entinostat + Vorinostat (first compound 2 µM), 0.743; in the assay with SGI-1776 + OSI-027 (first compound 0.08 µM), 0.673. The relative viability was 0.585 with SGI-1776 + OSI-027 (first compound 0.8 µM); 0.649 with SGI-1776 + OSI-027 (first compound 2.53 µM); 0.314 with SGI-1776 + OSI-027 (first compound 8 µM); 0.957 in assay [1] (first compound 0.02 µM); 1.01 in assay [1] (first compound 0.06325 µM); 0.824 in assay [1] (first compound 0.2 µM). The relative viability is 0.851 in assay [1] (first compound 0.6325 µM); 0.362 in assay [1] (first compound 2 µM); 0.356 with Entinostat + Pictilisib (first compound 0.02 µM); 0.465 with Entinostat + Pictilisib (first compound 0.06325 µM); 0.506 with Entinostat + Pictilisib (first compound 0.2 µM); 0.376 with Entinostat + Pictilisib (first compound 0.6325 µM). The relative viability with Entinostat + Pictilisib (first compound 2 µM) amounted to 0.277.
Consider SW 1573, for which the relative viability with Entinostat + Vorinostat (first compound 0.02 µM) is 0.698; with Entinostat + Vorinostat (first compound 0.06325 µM), 0.891; with Entinostat + Vorinostat (first compound 0.2 µM) it was 0.88; with Entinostat + Vorinostat (first compound 0.6325 µM), 0.422; in the assay with Entinostat + Vorinostat (first compound 2 µM), 0.43; with SGI-1776 + OSI-027 (first compound 0.08 µM), 0.673. Further, the relative viability was 0.715 with SGI-1776 + OSI-027 (first compound 0.8 µM); 0.631 with SGI-1776 + OSI-027 (first compound 2.53 µM); 0.391 in the assay with SGI-1776 + OSI-027 (first compound 8 µM); 0.207 in assay [1] (first compound 0.02 µM); 0.159 in assay [1] (first compound 0.06325 µM); 0.175 in assay [1] (first compound 0.2 µM). In addition, the relative viability came to 0.188 in assay [1] (first compound 0.6325 µM); 0.152 in assay [1] (first compound 2 µM); 0.518 in the assay with Entinostat + Pictilisib (first compound 0.02 µM); 0.506 in the assay with Entinostat + Pictilisib (first compound 0.06325 µM); 0.451 with Entinostat + Pictilisib (first compound 0.2 µM); 0.495 with Entinostat + Pictilisib (first compound 0.6325 µM). Further, in the assay with Entinostat + Pictilisib (first compound 2 µM), the relative viability was 0.344.
